Experimental data from US7160890B2, “Compounds specific to adenosine A3 receptor and uses thereof” (OSI Pharmaceuticals, Inc., priority 1999, dated 2007).
Blank lines part the entries; values can stand above or below the compound they belong to.

Experiments:
[1] = biological target: T1, human A1 receptor subtype (Homo sapiens, UniProt P30542); details: Table 13, concentration not given
T1 sequence (P30542 1-326): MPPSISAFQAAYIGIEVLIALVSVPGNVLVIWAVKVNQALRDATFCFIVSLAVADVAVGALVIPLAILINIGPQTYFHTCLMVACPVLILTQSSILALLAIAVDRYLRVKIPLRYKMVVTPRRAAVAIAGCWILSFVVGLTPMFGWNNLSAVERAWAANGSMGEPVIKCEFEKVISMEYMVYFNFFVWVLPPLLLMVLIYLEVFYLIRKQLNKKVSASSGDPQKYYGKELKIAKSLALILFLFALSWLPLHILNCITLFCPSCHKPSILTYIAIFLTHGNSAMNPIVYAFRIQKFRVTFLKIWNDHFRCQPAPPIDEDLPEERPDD

[2] = biological target: T2, human A3 receptor subtype (Homo sapiens, UniProt P0DMS8); assay: Adenosine 3 receptor competition radioligand binding, [125I]AB-MECA, HEK293 membranes; details: compared with compound 1308
T2 construct: expressed in transfected cells; host or cells: HEK293
T2 sequence (P0DMS8 1-318): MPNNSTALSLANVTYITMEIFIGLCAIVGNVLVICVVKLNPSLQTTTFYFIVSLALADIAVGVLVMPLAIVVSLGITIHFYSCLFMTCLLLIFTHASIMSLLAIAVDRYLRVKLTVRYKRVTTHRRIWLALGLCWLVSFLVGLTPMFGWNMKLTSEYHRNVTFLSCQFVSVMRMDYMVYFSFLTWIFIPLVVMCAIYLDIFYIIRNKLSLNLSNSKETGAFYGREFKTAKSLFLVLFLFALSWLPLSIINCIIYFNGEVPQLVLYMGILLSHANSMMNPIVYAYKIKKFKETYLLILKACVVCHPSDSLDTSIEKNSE

[3] = biological target: human A1 adenosine receptor (Homo sapiens, UniProt P30542); details: cited from earlier work
[4] = biological target: T3, human A2a receptor subtype (Homo sapiens, UniProt P29274); assay: Adenosine 2a receptor subtype competition radioligand binding, [3H]CGS-21680, HEK293 membranes; details: Table 13, concentration not given
T3 construct: expressed in transfected cells; host or cells: HEK-293 (Cadus clone #5)
T3 sequence (P29274 whole entry): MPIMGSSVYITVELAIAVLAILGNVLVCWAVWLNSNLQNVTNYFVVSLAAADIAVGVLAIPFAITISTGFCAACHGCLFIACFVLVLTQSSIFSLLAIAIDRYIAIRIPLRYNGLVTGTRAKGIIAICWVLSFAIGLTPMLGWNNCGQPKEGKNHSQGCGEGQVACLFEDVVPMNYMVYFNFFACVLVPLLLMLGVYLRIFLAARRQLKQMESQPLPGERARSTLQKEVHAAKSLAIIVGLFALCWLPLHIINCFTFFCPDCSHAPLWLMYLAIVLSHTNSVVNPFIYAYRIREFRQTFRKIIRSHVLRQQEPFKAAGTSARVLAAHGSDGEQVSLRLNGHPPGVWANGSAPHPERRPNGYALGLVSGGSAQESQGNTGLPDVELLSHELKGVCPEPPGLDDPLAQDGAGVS

Structure (SMILES): Cc1[nH]c2nc(-c3ccccc3)nc(NCCNC(=O)C3(N)CC3)c2c1C [Compound 1313]
Binding A1, value printed in % [1]: 30%

melting point: 234 to 235 °C
A3 receptor binding affinity relative to reference compound 1308 [2]: greater than 10 times
Structure (SMILES): c1ccc(-c2nc(NCCc3cnc[nH]3)c3cc[nH]c3n2)cc1 [Compound 1720, [2-(3H-Imidazol-4-yl)-ethyl]-(2-phenyl-7H-pyrrolo[2,3-d]pyrimidin-4-yl)-amine]

Structure (SMILES): CC(Cc1ccccc1)Nc1ncnc2c1ncn2[C@@H]1O[C@H](CO)[C@@H](O)[C@H]1O (single isomer, unassigned; (-)) [PIA, (−)-N6-(2-phenylisopropyl)-adenosine]
reported affinity [3]: approximately 50 nM

Structure (SMILES): CNC(=O)NCCCNc1nc(-c2ccccc2)nc2[nH]c(C)c(C)c12 [Compound 1310]
Binding A2a, value given in % [4]: 76%
